Reference: patent US10576062B2, “Carbamoyloxymethyl triazole cyclohexyl acids as LPA antagonists” (Bristol-Myers Squibb Company, priority 2016, dated 2020)

The compounds below were run against T1, human LPA1 (Homo sapiens, UniProt Q92633) (assay: LPA1 functional antagonist assay (LPA-induced calcium flux)). Details: read-out: hLPA1 IC50.
T1 construct: expressed in transfected cells; host or cells: Chinese hamster ovary (CHO) cells
Format: cell-based
Method in brief: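 CHO cells overexpressing human LPA1, loaded with calcium dye 30 min at 37° C, were preincubated 20 min at room temperature with compound (0.08 nM–5 μM, 0.5% DMSO) in HBSS/20 mM HEPES/0.1% fatty acid-free BSA.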

T1 sequence (Q92633 whole entry): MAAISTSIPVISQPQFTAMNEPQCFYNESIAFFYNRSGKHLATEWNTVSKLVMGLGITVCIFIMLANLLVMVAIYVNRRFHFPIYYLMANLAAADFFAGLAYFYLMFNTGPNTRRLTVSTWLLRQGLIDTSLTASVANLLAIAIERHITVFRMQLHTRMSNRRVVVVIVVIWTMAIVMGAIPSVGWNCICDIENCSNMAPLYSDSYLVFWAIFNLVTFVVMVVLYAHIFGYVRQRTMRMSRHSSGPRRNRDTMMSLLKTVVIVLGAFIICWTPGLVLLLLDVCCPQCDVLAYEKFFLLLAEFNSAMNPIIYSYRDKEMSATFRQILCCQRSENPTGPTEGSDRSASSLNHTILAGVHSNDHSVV

IC50	SMILES
292 nM	Cc1nc(-c2nnn(C)c2COC(=O)N2CCCC(C)(C)C2)ccc1O[C@H]1CCC[C@H](C(=O)O)C1 [Example 137, (1S,3S)-3-((6-(5-(((3,3-dimethylpiperidine-1-carbonyl)oxy)methyl)-1-methyl-1H-1,2,3-triazol-4-yl)-2-methylpyridin-3-yl)oxy)cyclohexane-1-carboxylic acid]
148 nM	Cc1nc(-c2nnn(C)c2COC(=O)N2CCC(C)(C)C2)ccc1O[C@H]1CCC[C@H](C(=O)O)C1 [Example 140, (1S,3S)-3-((6-(5-(((3,3-dimethylpyrrolidine-1-carbonyl)oxy)methyl)-1-methyl-1H-1,2,3-triazol-4-yl)-2-methylpyridin-3-yl)oxy)cyclohexane-1-carboxylic acid]
252 nM	Cc1nc(-c2nnn(C)c2COC(=O)N(C)C2CC2)ccc1O[C@H]1CCC[C@H](C(=O)O)C1 [Example 142, (1S,3S)-3-((6-(5-(((cyclopropyl(methyl)carbamoyl)oxy)methyl)-1-methyl-1H-1,2,3-triazol-4-yl)-2-methylpyridin-3-yl)oxy)cyclohexane-1-carboxylic acid]
518 nM	Cc1nc(-c2nnn(C)c2COC(=O)N2CCC(F)(F)C2)ccc1O[C@H]1CCC[C@H](C(=O)O)C1 [Example 143, (1S,3S)-3-((6-(5-(((3,3-difluoro-pyrrolidine-1-carbonyl)oxy)methyl)-1-methyl-1H-1,2,3-triazol-4-yl)-2-methylpyridin-3-yl)oxy)cyclohexane-1-carboxylic acid]
89 nM	Cc1nc(-c2nnn(C)c2COC(=O)N2CCC3(CC3)C2)ccc1O[C@H]1CCC[C@H](C(=O)O)C1 [Example 144, (1S,3S)-3-((6-(5-(((5-azaspiro[2.4]heptane-5-carbonyl)oxy)methyl)-1-methyl-1H-1,2,3-triazol-4-yl)-2-methylpyridin-3-yl)oxy)cyclohexane-1-carboxylic acid]

More lines, now with the values behind:

SMILES	IC50
Cc1nc(-c2nnn(C)c2COC(=O)N(C)C(C)C)ccc1O[C@H]1CCC[C@H](C(=O)O)C1 [Example 138]	98 nM
Cc1nc(-c2nnn(C)c2COC(=O)N(C)C2CC(F)(F)C2)ccc1O[C@H]1CCC[C@H](C(=O)O)C1 [Example 139, (1S,3S)-3-((6-(5-((((3,3-difluorocyclobutyl)(methyl)carbamoyl)oxy)methyl)-1-methyl-1H-1,2,3-triazol-4-yl)-2-methylpyridin-3-yl)oxy)cyclohexane-1-carboxylic acid]	70 nM
Cc1nc(-c2nnn(C)c2COC(=O)N(C)C2CC(F)(F)C2)ccc1O[C@H]1CCC[C@@H](C(=O)O)C1 [Example 141, (1R,3S)-3-((6-(5-((((3,3-difluoro-cyclobutyl)(methyl)carbamoyl)oxy)methyl)-1-methyl-1H-1,2,3-triazol-4-yl)-2-methylpyridin-3-yl)oxy)cyclohexane-1-carboxylic acid]	283 nM
Cc1nc(-c2nnn(C)c2COC(=O)N(C)CC2CC(F)(F)C2)ccc1O[C@H]1CCC[C@H](C(=O)O)C1 [Example 145, (1S,3S)-3-((6-(5-(((((3,3-difluoro-cyclobutyl)methyl)(methyl)carbamoyl)oxy)methyl)-1-methyl-1H-1,2,3-triazol-4-yl)-2-methylpyridin-3-yl)oxy)cyclohexane-1-carboxylic acid]	94 nM
Cc1nc(-c2nnn(C)c2COC(=O)N(C)C2CC23CCC3)ccc1O[C@H]1CCC[C@@H](C(=O)O)C1 (stereo partly drawn) [Example 146, (1R,3S)-3-((2-methyl-6-(1-methyl-5-(((methyl(spiro[2.3]hexan-1-yl)carbamoyl)oxy)methyl)-1H-1,2,3-triazol-4-yl)pyridin-3-yl)oxy)cyclohexane-1-carboxylic acid]	1820 nM
Cc1nc(-c2nnn(C)c2COC(=O)N2CC3CCC2C3)ccc1O[C@H]1CCC[C@H](C(=O)O)C1 (stereo partly drawn) [Example 148, (1S,3S)-3-((6-(5-(((-2-azabicyclo[2.2.1]heptane-2-carbonyl)oxy)methyl)-1-methyl-1H-1,2,3-triazol-4-yl)-2-methylpyridin-3-yl)oxy)cyclohexane-1-carboxylic acid]	325 nM
